For orientation: IC50 means the concentration at which inhibition is half-maximal.

In one data set the test system is MCF-10A cells. Put plainly: MTT assay, cytotoxicity on normal mammary epithelial cells MCF-10A. Type of data set: cell-based, human. The following applies: 72 h; for IC50: normal cells, mean ± SD of three experiments. The method, then: (§1) All cell lines used for the reported studies were purchased from the American Type Culture Collection (ATCC, Manassas, VA, USA). Human breast cancer cells MCF-7 and MDA-MB-231 were maintained in Dulbecco’s Modified Eagle Medium/Nutrient Mixture F12 Ham (DMEM/F12) supplemented with 5% fetal bovine serum (FBS), 1% L-glutamine and 100 units/mL of penicillin/streptomycin. Human mammary epithelial cells MCF-10A were cultured in DMEM/F12 medium, supplemented with 5% horse serum (HS), 100 units/mL of penicillin/streptomycin, […], 0.02 µg/mL human epidermal growth factor (EGF), 10 µg/mL insulin and […] [34]. The murine macrophages RAW 264.7 were grown in Dulbecco’s Modified Eagle’s Medium (DMEM) high glucose (4.5 g/L), added with 10% fetal bovine serum (FBS), 1% L-glutamine and 100 units/mL of penicillin/streptomycin. Cells were maintained at 37 °C, in a humidified atmosphere containing 5% CO2.
(§2) Cell viability was determined using the 3-(4,5-dimethylthiazol-2-y1)-2,5-diphenyltetrazolium bromide assay (MTT, Sigma-Aldrich, Milan, Italy), as in [35]. Cells were treated for 72 h (anticancer activity) or 24 h (anti-inflammatory activity) at different concentrations and the IC50 values were obtained using GraphPad Prism 9 software (GraphPad Software, La Jolla, CA, USA).
For orientation: Tetrazolium dyes change colour on reduction, which living cells bring about.

A further data set relates to MCF-7 cells. The experiment in a line: MTT assay, anticancer activity, MCF-7. Type of data set: cell-based, human. The note with it: 72 h, mean ± SD of three experiments. Here is the method:
as §1, §2

The test system of data set [1] is Escherichia coli (ATCC 25922). Put plainly: MIC and MBC by broth dilution, E. coli. The following applies: broth dilution, overnight 37 °C. In kind it is cell-based. The text has this: (§3) The bacterial strains used for MIC and MBC value determinations expressed as µg/mL by the broth dilution method, according to CLSI guidelines, were the following: Gram-negative: Escherichia coli (ATCC® 25922TM); Gram-positive: Staphylococcus aureus (ATCC® 23235TM). The MIC represents the lowest concentration of compound able to inhibit the visible microbial growth, expressed in μg/mL, whereas the MBC is the lowest concentration of a given compound that can completely kill the bacteria. Bacteria were grown overnight in LB medium (2%), diluted at a density of […] colony forming units (CFUs/mL), plated in the 96-well microplates to obtain a total inoculum load of ca. 10^5 cells/well and then treated with increasing concentrations of the tested complexes (1, 5, 10, 20, 50, 100, 200 μg/mL). Successively, after incubation at 37 °C overnight, the bacterial growth was monitored at a wavelength of 600 nm using a Multiskan spectrophotometer (Multiskan Ex Microplate model; Thermo Scientific, Nyon, Switzerland). MIC or MBC values were obtained by comparing cell density with a positive control (bacterial cells grown in LB medium were added with only the vehicle, DMSO). The results were representative of three independent experiments performed in triplicate and ampicillin (Sigma Aldrich A9393) was used as the control for strain sensitivity.

In another data set the test system is MDA-MB-231 cells. Put plainly: MTT assay, anticancer activity, MDA-MB-231. In kind it is cell-based, human. The following applies: 72 h, mean ± SD of three experiments. Here is the method: as §1, §2
In data set [2] the test system is NO production in LPS-stimulated RAW 264.7 macrophages (iNOS). The experiment in a line: Griess assay, NO production in LPS-stimulated RAW 264.7 macrophages. In kind it is cell-based, murine. The note with it: 24 h, LPS 1 µg/mL, RAW 264.7, vs LPS only. The text has this:
Inflammation is an important process, in which the immune system is activated, allowing the protection from infections by eliminating pathogens and promoting repairing phenomena. However, in some cases, the inflammation can become chronic, playing a key role in several diseases, such as cancer, diabetes, autoimmune and neurodegenerative disorders. Moreover, chronic inflammation is characterized by a proliferation of different specialized cells, for instance macrophages, fibroblasts, granulocytes and so on. […] NO is produced by nitric oxide synthases (NOS) isoforms, but under different pro-inflammatory stimuli (cytokines or microbial products) it is massively produced by the inducible NOS (iNOS, NOS2; or type II NOS). iNOS can be also overexpressed in several diseases, producing NO in an unregulated manner and contributing to the disease progression. For these reasons, its inhibition represents a good strategy for the treatment of various diseases related to chronic inflammation, amongst them cancer. The anti-inflammatory activity, in terms of NO production inhibition, of the new synthesized chiral complexes was evaluated by the means of a Griess-based assay. Particularly, the NO production was induced in murine macrophages RAW 264.7 stimulated with bacterial lipopolysaccharide (LPS), then they were exposed to the complexes for 24 h and the released NO was quantified (as detailed in the Section 3). […] Therefore, pro-ligands P1 and P2, as R and S pure enantiomers, were tested. The obtained outcomes are visible in Figure 2 (panels A and B, P1 and P2 series, respectively), where it is possible to notice “at glance” that most of the enantiopure compounds were unable to decrease the NO synthesis, induced by LPS treatment in RAW 264.7 macrophages (see pink bars in the graph), with the exception of (R)-AuL1 and (R)-AuL2. Particularly, (R)-AuL1 was able to decrease, dose-dependently, the NO production of about 23 and 35% at 5 and 10 µM, respectively, whereas the S enantiomer was unable to reduce NO, under the same experimental conditions. […] Furthermore, none of the pro-ligands was found able to decrease NO production. […] Finally, viability assays were performed on RAW 264.7 macrophages, recovered after the Griess test.
Anti-inflammatory activity was tested adopting the Griess assay on RAW 264.7 murine macrophages, by measuring NO production, as reported by. Specifically, RAW 264.7 cells were plated on 48 multi-wells and treated with the tested molecules at the indicated concentrations; lipopolysaccharide (LPS, Sigma Aldrich, Milan, Italy), at a final concentration of 1 µg/mL, was used to induce inflammation and stimulate NO production. After 24 h, the cell medium and Griess reagent were mixed at a 1:1 ratio and left under agitation for 30 min, at room temperature. Then, absorbance was measured at 540 nm, using a multiplate reader. The absorbance obtained allowed to assess the percentage of NO production compared with the positive control, in which the cells have been treated with LPS.
Figure 2 Panel (A), L1 series and panel (B), L2 series. Anti-inflammatory activity (pink bars): NO production was induced in murine macrophages RAW 264.7 treated with LPS (1 µg/mL), in presence or not of the enantiopure complexes and pro-ligands at the indicated concentrations (µM), for 24 h. Indomethacin (Ind) was used as the reference molecule. Data were plotted as % NO inhibition with respect to LPS-only treatment. […]

Data set [3] deals with Staphylococcus aureus (ATCC 23235). The experiment in a line: MIC and MBC by broth dilution, S. aureus. In kind it is cell-based. The following applies: broth dilution, overnight 37 °C.
Description: as §3

For the compound `CN1C=CN(C[C@H](O)c2ccccc2)[CH]1[Au-][Cl]` (stereo partly drawn) [(R)-AuL1, (1-((R)-2-hydroxy-2-phenylethyl)-3-methyl-2,3-dihydro-1H-imidazol-2-yl)gold(I) chloride], the IC50 stood at 52.9 ± 2.2 µM in the data set with MCF-10A cells, 16 ± 0.8 µM in the data set with MCF-7 cells and 15.3 ± 4.5 µM in the data set with MDA-MB-231 cells. Further, the “M.B.C. E. coli” value in data set [1] was more than 150 µg/mL. Moreover, in data set [1], the “M.I.C. E. coli” value was determined as 75 µg/mL. Also, the “decrease of NO production” value is reported as “about 23%” in data set [2] (5 µM) and approximately 35% in data set [2] (10 µM). For the same compound, the “M.B.C. S. aureus” value in data set [3] is listed as more than 150 µg/mL. In data set [3], the “M.I.C. S. aureus” value came out at 25 µg/mL.

As to `CN1C(Cl)=C(Cl)N(C[C@H](O)c2ccccc2)[CH]1[Au-][Cl]` (stereo partly drawn) [(R)-AuL2, (4,5-dichloro-1-((R)-2-hydroxy-2-phenylethyl)-3-methyl-2,3-dihydro-1H-imidazol-2-yl)gold(I) chloride], in the data set with MCF-10A cells, the “cytotoxicity toward normal MCF-10A cells (in words)” value is on record as “did not impact” and the IC50 was 38 ± 2.2 µM. In the data set on MCF-7 cells, this compound registered an IC50 of 2.2 ± 0.2 µM. In data set [1], the “M.B.C. E. coli” value was more than 150 µg/mL and the “M.I.C. E. coli” value worked out at 75 µg/mL. For the same compound, half-maximal inhibition with MDA-MB-231 cells (IC50) required 1.2 ± 0.2 µM. For the same compound, the “decrease of NO production” value in data set [2] (1 µM) is “about 10%”. Also, the “decrease of NO production” value in data set [2] (5 µM) is approximately 50%. Besides, in data set [3], the “M.B.C. S. aureus” value is listed as more than 100 µg/mL and the “M.I.C. S. aureus” value is on record as 75 µg/mL.

For the compound `COc1ccc2c(c1)c(CC(=O)O)c(C)n2C(=O)c1ccc(Cl)cc1` [Ind, Indomethacin, reference compound], in data set [2] (50 µM), the “decrease of NO production” value is given as “about 26%”.

The values are drawn from article PMC11596155, “When Chirality Makes the Difference: The Case of Novel Enantiopure N-Heterocyclic Carbene–Gold and –Silver Complexes” (Molecules, 2024).
